Assay results as given in patent US10301295B2, “Herbicidal compounds” (Syngenta Participations AG, priority 2014, dated 2019).
Read-outs that look alike come from different tables or passages of the source.

Assays:
Format in all cases: in vivo
[1] = tested on: wheat; experiment: Post-emergence herbicidal activity against cereal crops (wheat) +/- safener, crop selectivity; settings: 100%=total damage to plant, 0%=no damage; for Post-emergence herbicidal activity against wheat (percentage phytotoxicity), +CQC: 250 g/ha, plus safener cloquintocet-mexyl (CQC) applied at 50 g/ha; for percent phytotoxicity (crop damage) to wheat at 250 g/ha: Triticum aestivum, 360 h, without safener, read-out: Post-emergence herbicidal activity against wheat (percentage phytotoxicity), Wheat - CQC
Protocol: Seeds of a variety of monocotyledonous and dicotyledonous test plants are sown in standard soil in pots. The plants are cultivated for one day (for pre-emergence) or for about 12 days (for post-emergence) under controlled conditions in a glasshouse (warm climate species at 24/18° C., cool climate species at 20/16° C., both at day/night; 16 hours light; 65% humidity). The test plants are then grown on, in a glasshouse (greenhouse) under controlled conditions (warm climate species at 24/18° C., cool climate species at 20/16° C., both at day/night; 16 hours light; 65% humidity) and are watered twice daily. 15 days after application of the test herbicide (15DAA) (for post-emergence), and 20 days after application of the test herbicide (20DAA) (for pre-emergence), the test plants are evaluated visually, and an assessed percentage phytotoxicity score is given for each herbicidal application on each plant species (with 100%=total damage to plant; 0%=no damage to plant).

[2] = tested on: Alopecurus myosuroides (ALOMY); experiment: Glasshouse assay for herbicidal activity, pre-/post-emergence (percentage phytotoxicity); settings: Alopecurus myosuroides, Rate 250 g/ha, 100%=total damage, 0%=no damage
Summary of the method: (§1)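 Pre- and post-emergence treatments were applied to potted plants at 1 and ~12 days after sowing respectively. Percentage phytotoxicity was judged visually 20 or 15 days later.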

[3] = tested on: Avena fatua (AVEFA); experiment: as above; settings: Avena fatua, Rate 250 g/ha, 100%=total damage, 0%=no damage
Summary of the method: as §1

[4] = tested on: Echinochloa crus-galli (ECHCG); experiment: as above; settings: Echinochloa crus-galli, Rate 250 g/ha, 100%=total damage, 0%=no damage
Summary of the method: as §1

[5] = tested on: Lolium perenne (LOLPE); experiment: as above; settings: Lolium perenne, Rate 250 g/ha, 100%=total damage, 0%=no damage
Summary of the method: as §1

[6] = 360 h, post-emergence, visual assessment 15 DAA, read-out: Post-emergence herbicidal activity (percentage phytotoxicity), ALOMY POST
[7] = 480 h, pre-emergence, visual assessment 20 DAA, read-out: Pre-emergence herbicidal activity (percentage phytotoxicity), ALOMY PRE
[8] = post-emergence, 360 h, post-emergence, visual assessment 15 DAA, read-out: Post-emergence herbicidal activity (percentage phytotoxicity), AVEFA POST
[9] = pre-emergence, 480 h, pre-emergence, visual assessment 20 DAA, read-out: Pre-emergence herbicidal activity (percentage phytotoxicity), AVEFA PRE
[10] = post-emergence, 360 h, post-emergence, visual assessment 15 DAA, read-out: Post-emergence herbicidal activity (percentage phytotoxicity), ECHCG POST
[11] = pre-emergence, 480 h, pre-emergence, visual assessment 20 DAA, read-out: Pre-emergence herbicidal activity (percentage phytotoxicity), ECHCG PRE
[12] = post-emergence, 360 h, post-emergence, visual assessment 15 DAA, read-out: Post-emergence herbicidal activity (percentage phytotoxicity), LOLPE POST
[13] = pre-emergence, 480 h, pre-emergence, visual assessment 20 DAA, read-out: Pre-emergence herbicidal activity (percentage phytotoxicity), LOLPE PRE

Structure (SMILES)	Post-emergence herbicidal activity against wheat (percentage phytotoxicity), +CQC [1]	percent phytotoxicity (crop damage) to wheat at 250 g/ha [1]	pest or weed control at 250 g/ha [2, 6]	pest or weed control at 250 g/ha [2, 7]	pest or weed control at 250 g/ha [3, 8]	pest or weed control at 250 g/ha [3, 9]	pest or weed control at 250 g/ha [4, 10]	pest or weed control at 250 g/ha [4, 11]	pest or weed control at 250 g/ha [5, 12]	pest or weed control at 250 g/ha [5, 13]
Cc1cc(-n2cc(Cl)cn2)cc(C)c1C1C(=O)CC(CCNC(=O)Nc2ccccn2)C1=O.Cl (stereo not drawn) [Compound A13]	40%	70%	90%	70%	100%	40%	100%	90%	70%	50%
Cc1cc(C)c(C2C(=O)CC(CCNC(=O)N(C)C(C)(C)C)C2=O)c(C)c1 (stereo not drawn) [Compound A14]	30%	60%	80%	90%	90%	90%	100%	100%	100%	100%
Cc1cc(C)c(C2C(=O)CC(CCNC(=O)Nc3cc(C(C)(C)C)on3)C2=O)c(C)c1 (stereo not drawn) [Compound A15]	30%	40%	60%	70%	50%	50%	30%	70%	70%	70%
Cc1cc(C)c(C2C(=O)CC(CCNC(=O)Nc3cc(C(C)(C)F)ncn3)C2=O)c(C)c1 (stereo not drawn) [Compound A16]	50%	80%	90%	80%	100%	70%	80%	100%	90%	90%
CONC(=O)NCCC1CC(=O)C(c2c(C)cc(C)cc2C)C1=O (stereo not drawn) [Compound A18]	0%	60%	80%	60%	80%	50%	90%	60%	80%	70%
Cc1cc(-c2ncc(Cl)cc2F)cc(C)c1C1C(=O)CC(CCNC(=O)Nc2ccccn2)C1=O (stereo not drawn) [Compound A19]	80%	80%	90%	70%	100%	90%	100%	80%	100%	80%
Cc1cc(-n2cc(Cl)cn2)cc(C)c1C1C(=O)CC(CCNC(=O)N(C)c2ccccn2)C1=O (stereo not drawn) [Compound A20]	0%	80%	80%	20%	100%	80%	100%	100%	90%	80%
Cc1cc(-n2cc(Cl)cn2)cc(C)c1C1C(=O)CC(CCNC(=O)NC(C)(C)C)C1=O (stereo not drawn) [Compound A21]	70%	90%	90%	90%	100%	90%	100%	100%	90%	80%
CC#Cc1cc(C)c(C2C(=O)CC(CCNC(=O)N(C)c3ccccn3)C2=O)c(C)c1.Cl (stereo not drawn) [Compound A22]	30%	80%	80%	70%	100%	100%	100%	100%	90%	100%
CC#Cc1cc(C)c(C2C(=O)CC(CCNC(=O)NC(C)(C)C)C2=O)c(C)c1 (stereo not drawn) [Compound A23]	80%	90%	90%	100%	100%	100%	100%	100%	90%	100%
Cc1cc(-c2ncccc2F)cc(C)c1C1C(=O)CC(CCNC(=O)Nc2ccccn2)C1=O.Cl (stereo not drawn) [Compound A24]	70%	80%	60%	10%	100%	70%	100%	90%	90%	80%
Cc1cc(-n2cc(Cl)cn2)cc(C)c1C1C(=O)CC(CCNC(=O)NOC(C)(C)C)C1=O (stereo not drawn) [Compound A25]	0%	60%	70%	30%	80%	0%	90%	50%	20%	30%
Cc1cc(C)c(C2C(=O)CC(CCNC(=O)NO)C2=O)c(C)c1 (stereo not drawn) [Compound A26]	10%	0%	10%	0%	0%	0%	10%	0%	40%	0%
Cc1cc(-c2ncc(Cl)cc2F)cc(C)c1C1C(=O)CC(CCNC(=O)N(C)c2ccccn2)C1=O.Cl (stereo not drawn) [Compound A27]	70%	80%	90%	60%	90%	90%	100%	90%	100%	90%
Cc1cc(-n2cc(Cl)cn2)cc(C)c1C1C(=O)CC(CCNC(=O)Nc2ccc(F)cn2)C1=O (stereo not drawn) [Compound A28]	20%	80%	90%	70%	100%	70%	90%	90%	80%	70%
